Results published in patent publication US20260226101A1, “PEPTIDE WITH ANTI-INFLAMMATORY AND ANTI-MICROBIAL ACTIVITY” (priority 2023, published 2026).
Ends that are not written are not given here.

Assays:
Test in all cases: Time-kill assay
Type in all cases: cell-based
[1] = tested on: Pseudomonas aeruginosa ATCC 9027; details: P. aeruginosa
Method: (§1) The survival of bacteria, time kill efficacy assay of IS 111 was further evaluated for activity against bacterial strain mentioned above according to CLSI reference method, with slightly modification. MICs were determined by broth microdilution assay as described above. […] Test tubes of MHB without test compound IS 111 were used as vehicle controls. Overnight cultures of the bacterial strains at cell densities of approximately 1×10^8 CFU/ml were used to inoculate both test and control tubes. The standard tube dilution method was opted to evaluate the time-kill efficacy of bacteria. Bacterial inoculum (1 mL) was diluted by adding 9 mL sterile saline solution and serially diluted up to 10^−3. […] 100 μL incubated suspension was transferred on the agar plates and spread through the spreader. Colony counts were performed after 24 h incubation at 37° C. Plates with 10-300 colonies were used for these counts, and the kill rate was determined by plotting log 10 viable counts (CFU/ml) against time. Bactericidal activity was defined as a ≥3 log 10 decreases in CFU/ml of the initial microbial population, while bacteriostatic activity was defined was defined as a <3 log 10 decrease in CFU/ml. The assay was performed in triplicate [Olufunmiso O Olajuyigbe et al., 2015; Sutthiwan Thammawat et al., 2017]
(§2) The time-kill kinetics antibacterial study of the Peptide IS 111 was carried out to assess the killing rate of the compound within a given contact time. The survival of bacteria, time kill efficacy assay of IS 111 was further evaluated for activity against Escherichia coli ATCC 8739 and Staphylococcus aureus ATCC 6538, Pseudomonas aeruginosa ATCC 9027 and Klebsiella pneumoniae ATCC 700603 according to CLSI reference method, with slightly modification. MICs were determined by broth microdilution assay as described above. […] 10. Test tubes of MHB without test compound Peptide IS 111 were used as vehicle controls. Overnight cultures of the bacterial strains at cell densities of approximately 1×10^6 CFU/ml were used to inoculate both test and control tubes.
(§3) After each interval, ten-fold dilutions were prepared with normal saline, and 100 μL incubated suspension was transferred on the agar plates and spread through the spreader. Colony counts were performed after 24 h incubation at 37° C. Plates with 10-300 colonies were used for these counts, and the kill rate was determined by plotting log 10 viable counts (CFU/ml) against time. Bactericidal activity was defined as a ≥3 log 10 decrease in CFU/ml of the initial microbial population, while bacteriostatic activity was defined as a <3 log 10 decrease in CFU/ml. The assay was performed in triplicate. The proportion of cells surviving at 60 min was calculated, as was the mean and standard deviation. Proportions of surviving cells were compared using Student's 2-tailed t-test, assuming unequal variance and differences were considered significant where p≤0.05.

[2] = tested on: Escherichia coli ATCC 8739; details: E. coli
Method: as §1, §2, §3

[3] = tested on: Staphylococcus aureus ATCC 6538; details: S. aureus
Method: as §1, §2, §3

How did the Viable count ([1]; 0.5 × MIC, 0 h) turn out when “FAKKFAK [IS 111, Phe-Ala-Lys-Lys-Phe-Ala-Lys]” was run?
The Viable count was 6.3 ± 0.30 1 × 10^5 CFU/ml.

And the Viable count ([1]; 0.5 × MIC, 1 h)?
Its Viable count is 5.4 ± 0.18 1 × 10^5 CFU/ml.

And the Viable count ([1]; 0.5 × MIC, 2 h)?
Its Viable count is 4.9 ± 0.15 1 × 10^5 CFU/ml.

What about the Viable count ([1]; 0.5 × MIC, 3 h) of the same substance?
Its Viable count is 4.1 ± 0.20 1 × 10^5 CFU/ml.

What about the Viable count ([1]; 0.5 × MIC, 4 h) of the same substance?
The Viable count was 3.5 ± 0.15 1 × 10^5 CFU/ml.

And the Viable count ([1]; 0.5 × MIC, 5 h)?
Its Viable count is 2.8 ± 0.23 1 × 10^5 CFU/ml.

And the Viable count ([1]; 0.5 × MIC, 12 h)?
The Viable count was 2.4 ± 0.15 1 × 10^5 CFU/ml.

And the Reduction in viability ([1]; 0.5×MIC (1.56 μg/ml), 24 h)?
Its Reduction in viability is 1 log 10 CFU/ml.

And the “Type of activity (bacteriostatic or bactericidal)” value (shortened to “Type of activity”) ([1]; 0.5×MIC, 24 h)?
Its value is “bacteriostatic”.

What about the Viable count ([1]; 0.5×MIC, 24 h) of the same substance?
Its Viable count is 2.1 ± 0.25 1 × 10^5 CFU/ml.

What about the Viable count ([1]; 1 × MIC, 0 h) of the same substance?
Its Viable count is 6.4 ± 0.15 1 × 10^5 CFU/ml.

And the Viable count ([1]; 1 × MIC, 1 h)?
Its Viable count is 4.0 ± 0.30 1 × 10^5 CFU/ml.

And the Viable count ([1]; 1 × MIC, 2 h)?
The Viable count was 1.9 ± 0.20 1 × 10^5 CFU/ml.

And the Viable count ([1]; 1 × MIC, 3 h)?
The Viable count was 1.0 ± 0.08 1 × 10^5 CFU/ml.

And the Viable count ([1]; 1 × MIC, 4 h)?
Its Viable count is 0.5 ± 0.08 1 × 10^5 CFU/ml.

And the Viable count ([1]; 1 × MIC, 5 h)?
Its Viable count is 0.2 ± 0.05 1 × 10^5 CFU/ml.

What about the Viable count ([1]; 1 × MIC, 12 h) of the same substance?
Its Viable count is 0.0 1 × 10^5 CFU/ml.

And the Viable count ([1]; 1 × MIC, 24 h)?
Its Viable count is 0.0 1 × 10^5 CFU/ml.

And the “Time to bacteriostatic activity” value ([1]; 1×MIC (3.13 μg/ml))?
Its value is at most 12 h.

And the Viable count ([1]; 5 × MIC, 0 h)?
Its Viable count is 6.4 ± 0.15 1 × 10^5 CFU/ml.

What about the Viable count ([1]; 5 × MIC, 1 h) of the same substance?
Its Viable count is 0.4 ± 0.10 1 × 10^5 CFU/ml.

And the Viable count ([1]; 5 × MIC, 2 h)?
The Viable count was 0.0 1 × 10^5 CFU/ml.

And the Viable count ([1]; 5 × MIC, 3 h)?
Its Viable count is 0.0 1 × 10^5 CFU/ml.

What about the Viable count ([1]; 5 × MIC, 4 h) of the same substance?
The Viable count was 0.0 1 × 10^5 CFU/ml.

What about the Viable count ([1]; 5 × MIC, 5 h) of the same substance?
The Viable count was 0.0 1 × 10^5 CFU/ml.

What about the Viable count ([1]; 5 × MIC, 12 h) of the same substance?
Its Viable count is 0.0 1 × 10^5 CFU/ml.

What about the Viable count ([1]; 5 × MIC, 24 h) of the same substance?
Its Viable count is 0.0 1 × 10^5 CFU/ml.

What about the Viable count ([2]; 0.5 × MIC, 0 h) of the same substance?
Its Viable count is 6.4 ± 0.48 1 × 10^5 CFU/ml.

And the Viable count ([2]; 0.5 × MIC, 1 h)?
Its Viable count is 5.5 ± 0.28 1 × 10^5 CFU/ml.

What about the Viable count ([2]; 0.5 × MIC, 2 h) of the same substance?
Its Viable count is 5.0 ± 0.20 1 × 10^5 CFU/ml.

What about the Viable count ([2]; 0.5 × MIC, 3 h) of the same substance?
The Viable count was 4.2 ± 0.10 1 × 10^5 CFU/ml.

What about the Viable count ([2]; 0.5 × MIC, 4 h) of the same substance?
The Viable count was 3.7 ± 0.08 1 × 10^5 CFU/ml.

And the Viable count ([2]; 0.5 × MIC, 5 h)?
Its Viable count is 2.9 ± 0.35 1 × 10^5 CFU/ml.

And the Viable count ([2]; 0.5 × MIC, 12 h)?
The Viable count was 2.5 ± 0.35 1 × 10^5 CFU/ml.

What about the Viable count ([2]; 0.5 × MIC, 24 h) of the same substance?
The Viable count was 2.3 ± 0.43 1 × 10^5 CFU/ml.

What about the Reduction in viability ([2]; 0.5×MIC (0.78 μg/ml), 24 h) of the same substance?
The Reduction in viability was 2 log 10 CFU/ml.

And the “Type of activity” value ([2]; 0.5×MIC and 1×MIC, 24 h)?
The value was “bacteriostatic”.

What about the Viable count ([2]; 1 × MIC, 0 h) of the same substance?
Its Viable count is 6.5 ± 0.10 1 × 10^5 CFU/ml.

And the Viable count ([2]; 1 × MIC, 1 h)?
Its Viable count is 4.2 ± 0.45 1 × 10^5 CFU/ml.

And the Viable count ([2]; 1 × MIC, 2 h)?
The Viable count was 2.1 ± 0.38 1 × 10^5 CFU/ml.

And the Viable count ([2]; 1 × MIC, 3 h)?
The Viable count was 1.2 ± 0.28 1 × 10^5 CFU/ml.

And the Viable count ([2]; 1 × MIC, 4 h)?
The Viable count was 0.6 ± 0.20 1 × 10^5 CFU/ml.

And the Viable count ([2]; 1 × MIC, 5 h)?
The Viable count was 0.4 ± 0.10 1 × 10^5 CFU/ml.

What about the Viable count ([2]; 1 × MIC, 12 h) of the same substance?
Its Viable count is 0.2 ± 0.08 1 × 10^5 CFU/ml.

And the Viable count ([2]; 1 × MIC, 24 h)?
Its Viable count is 0 1 × 10^5 CFU/ml.

And the “Time to complete reduction of initial inoculum” value ([2]; 1×MIC)?
Its value is 24 h.

What about the Viable count ([2]; 5 × MIC, 0 h) of the same substance?
The Viable count was 6.5 ± 0.23 1 × 10^5 CFU/ml.

And the Viable count ([2]; 5 × MIC, 1 h)?
Its Viable count is 0.5 ± 0.05 1 × 10^5 CFU/ml.

And the Viable count ([2]; 5 × MIC, 2 h)?
The Viable count was 0.2 ± 0.05 1 × 10^5 CFU/ml.

And the Viable count ([2]; 5 × MIC, 3 h)?
Its Viable count is 0 1 × 10^5 CFU/ml.

What about the Viable count ([2]; 5 × MIC, 4 h) of the same substance?
The Viable count was 0 1 × 10^5 CFU/ml.

And the Viable count ([2]; 5 × MIC, 5 h)?
The Viable count was 0 1 × 10^5 CFU/ml.

And the Viable count ([2]; 5 × MIC, 12 h)?
The Viable count was 0 1 × 10^5 CFU/ml.

What about the Viable count ([2]; 5 × MIC, 24 h) of the same substance?
The Viable count was 0 1 × 10^5 CFU/ml.

And the Viable count ([3]; 0.5 × MIC, 0 h)?
The Viable count was 5.1 ± 0.65 1 × 10^5 CFU/ml.

What about the Viable count ([3]; 0.5 × MIC, 1 h) of the same substance?
The Viable count was 4.6 ± 0.48 1 × 10^5 CFU/ml.

What about the Viable count ([3]; 0.5 × MIC, 2 h) of the same substance?
Its Viable count is 3.8 ± 0.68 1 × 10^5 CFU/ml.

What about the Viable count ([3]; 0.5 × MIC, 3 h) of the same substance?
The Viable count was 3.2 ± 0.58 1 × 10^5 CFU/ml.

What about the Viable count ([3]; 0.5 × MIC, 4 h) of the same substance?
The Viable count was 2.5 ± 0.58 1 × 10^5 CFU/ml.

What about the Viable count ([3]; 0.5 × MIC, 5 h) of the same substance?
Its Viable count is 2.1 ± 0.43 1 × 10^5 CFU/ml.

And the Viable count ([3]; 0.5 × MIC, 12 h)?
The Viable count was 1.8 ± 0.43 1 × 10^5 CFU/ml.

What about the Reduction in viability ([3]; 0.5×MIC (1.56 μg/ml), 24 h) of the same substance?
The Reduction in viability was 2 log 10 CFU/ml.

What about the “Type of activity” value ([3]; 0.5×MIC, 24 h) of the same substance?
The value was “bacteriostatic”.

And the Viable count ([3]; 0.5×MIC, 24 h)?
The Viable count was 1.2 ± 0.23 1 × 10^5 CFU/ml.

What about the Viable count ([3]; 1 × MIC, 0 h) of the same substance?
Its Viable count is 5.3 ± 0.10 1 × 10^5 CFU/ml.

And the Viable count ([3]; 1 × MIC, 1 h)?
The Viable count was 3.7 ± 0.43 1 × 10^5 CFU/ml.

And the Viable count ([3]; 1 × MIC, 2 h)?
The Viable count was 1.6 ± 0.48 1 × 10^5 CFU/ml.

What about the Viable count ([3]; 1 × MIC, 3 h) of the same substance?
The Viable count was 0.7 ± 0.15 1 × 10^5 CFU/ml.

What about the Viable count ([3]; 1 × MIC, 4 h) of the same substance?
The Viable count was 0.3 ± 0.15 1 × 10^5 CFU/ml.

And the Viable count ([3]; 1 × MIC, 5 h)?
Its Viable count is 0.2 ± 0.00 1 × 10^5 CFU/ml.

What about the Viable count ([3]; 1 × MIC, 12 h) of the same substance?
The Viable count was 0 1 × 10^5 CFU/ml.

And the Viable count ([3]; 1 × MIC, 24 h)?
The Viable count was 0 1 × 10^5 CFU/ml.

What about the “Time to bacteriostatic activity” value ([3]; 1×MIC (3.13 μg/ml)) of the same substance?
The value was at most 12 h.

What about the Viable count ([3]; 5 × MIC, 0 h) of the same substance?
Its Viable count is 5.6 ± 0.30 1 × 10^5 CFU/ml.

What about the Viable count ([3]; 5 × MIC, 1 h) of the same substance?
Its Viable count is 0.8 ± 0.13 1 × 10^5 CFU/ml.

What about the Viable count ([3]; 5 × MIC, 2 h) of the same substance?
Its Viable count is 0.4 ± 0.08 1 × 10^5 CFU/ml.

And the Viable count ([3]; 5 × MIC, 3 h)?
Its Viable count is 0 1 × 10^5 CFU/ml.

What about the Viable count ([3]; 5 × MIC, 4 h) of the same substance?
The Viable count was 0 1 × 10^5 CFU/ml.

What about the Viable count ([3]; 5 × MIC, 5 h) of the same substance?
Its Viable count is 0 1 × 10^5 CFU/ml.

What about the Viable count ([3]; 5 × MIC, 12 h) of the same substance?
Its Viable count is 0 1 × 10^5 CFU/ml.

And the Viable count ([3]; 5 × MIC, 24 h)?
Its Viable count is 0 1 × 10^5 CFU/ml.

And the “Time to bacteriostatic activity” value ([3]; 5×MIC (15.6 μg/ml))?
Its value is at most 2 h.
